Reference: US8747830B2, “Wound repair composition and method” (Queensland University of Technology, priority 2007, dated 2014)

Tested on: MMP's (particularly MMP-9) in chronic wound fluid
Conditions: inhibitor 2 mM, 37° C., 24 hours; % of untreated control remaining
Experimental: Collagenase sensitivity was identified as clear bands against a dark background in zymograms and could be quantitated by densitometric analysis. […] Lanes 1-6 are chronic wound fluid samples from six different patients with 500 ng of total protein loaded per sample. […] Electrophoresis was performed at 4° C. under Laemmli conditions. […] After incubation the gels were stained appropriately and protease activity was visualised as clear (unstained) bands.

## C=C(C)C(=O)NCCCC(O)(P(=O)(O)O)P(=O)(O)O [alendronate-methacrylate conjugate]
  type I collagen degradation relative to that seen in the untreated control (densitometry, FIG. 4): 30%-40%
